The values that follow come from US20080207705A1, “Heteroaryl-Imidazole Derivatives as Cannabinoid CB1 Receptor Antagonists” (Green Cross Corporation, priority 2007, published 2008).

As usually defined, the IC50 is the concentration that inhibits the measured activity by half.

SMILES strings stand for the structures.

T1 sequence (P20272 whole entry): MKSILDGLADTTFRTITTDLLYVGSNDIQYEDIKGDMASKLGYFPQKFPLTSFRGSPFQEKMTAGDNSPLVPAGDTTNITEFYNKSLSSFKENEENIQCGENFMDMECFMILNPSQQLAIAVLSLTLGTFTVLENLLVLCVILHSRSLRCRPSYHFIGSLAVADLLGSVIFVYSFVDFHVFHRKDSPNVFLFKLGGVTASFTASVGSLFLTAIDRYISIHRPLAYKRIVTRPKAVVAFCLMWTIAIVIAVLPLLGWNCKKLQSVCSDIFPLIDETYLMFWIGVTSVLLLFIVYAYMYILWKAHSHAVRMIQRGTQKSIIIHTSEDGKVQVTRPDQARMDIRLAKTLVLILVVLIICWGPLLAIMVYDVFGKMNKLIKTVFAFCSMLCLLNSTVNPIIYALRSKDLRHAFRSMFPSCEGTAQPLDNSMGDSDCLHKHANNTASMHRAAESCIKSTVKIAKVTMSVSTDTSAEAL

One experiment addresses T1, rat CB-1 receptor (Rattus norvegicus, UniProt P20272).
T1 construct: The tissue obtained from the brain of SD rats was homogenized; from tissue; host or cells: brain of SD rats (membrane pellet of homogenate)
Put plainly: rat CB-1 receptor binding protocol with [3H]CP-55940.
Conditions: not given
With `CCc1c(-c2nnc(C3(c4ccccc4)CC3)o2)nc(-c2ccc(Cl)cc2Cl)n1-c1ccc(Br)cc1` [Example 27, 2-(1-(4-Bromophenyl)-2-(2,4-dichlorophenyl)-5-ethyl-1H-imidazol-4-yl)-5-(1-phenylcyclopropyl)-1,3,4-oxadiazole], the IC50 was determined as 9.14 nM.
Same read-out and setting: then `Cc1c(-c2nnc(C(C)(C)C)o2)nc(-c2ccccc2Cl)n1-c1ccc(Br)cc1` [Example 51, 2-(1-(4-Bromophenyl)-2-(2-chlorophenyl)-5-methyl-1H-imidazol-4-yl)-5-tert-butyl-1,3,4-oxadiazole], with 31.7 nM.

Staying with this experiment, now noted: [3H]CP-55940, brain tissue of SD rats, 30 °C for 60 min; read-out: IC50.
In the case of `CCc1c(-c2nnc(C3(c4ccccc4)CC3)s2)nc(-c2ccc(Cl)cc2Cl)n1-c1ccc(Br)cc1` [Example 117, 2-(1-(4-Bromophenyl)-2-(2,4-dichlorophenyl)-5-ethyl-1H-imidazol-4-yl)-5-(1-phenylcyclopropyl)-1,3,4-thiadiazole], the concentration for half-maximal inhibition (IC50) was 8.29 nM.
Still for that read-out and setting: the same measure for `CCCc1c(-c2nnc(C3CCC3)s2)nc(-c2ccc(Cl)cc2Cl)n1-c1ccc(Cl)cc1` [Example 126, 2-(1-(4-Chlorophenyl)-2-(2,4-dichlorophenyl)-5-propyl-1H-imidazol-4-yl)-5-cyclobutyl-1,3,4-thiadiazole]: 13.5 nM; for `CCc1c(-c2nnc(C3CCC3)o2)nc(-c2ccc(Cl)cc2Cl)n1-c1ccc(Cl)cc1` [Example 14, 2-(1-(4-Chlorophenyl)-2-(2,4-dichlorophenyl)-5-ethyl-1H-imidazol-4-yl)-5-cyclobutyl-1,3,4-oxadiazole]: 34.1 nM.
The same measure, in the same setting: then `CCCCC(C)c1nnc(-c2nc(-c3ccc(Cl)cc3Cl)n(-c3ccc(Cl)cc3)c2CC)s1` (stereo not shown) [Example 105, 2-(1-(4-Chlorophenyl)-2-(2,4-dichlorophenyl)-5-ethyl-1H-imidazol-4-yl)-5-(hexan-2-yl)-1,3,4-thiadiazole], with 8.05 nM; and `CC(C)(C)c1nnc(-c2nc(-c3ccc(Cl)cc3Cl)n(-c3ccc(Br)cc3)c2Cn2cncn2)s1` [Example 164, 2-(5-((1H-1,2,4-Triazol-1-yl)methyl)-1-(4-bromophenyl)-2-(2,4-dichlorophenyl)-1H-imidazol-4-yl)-5-tert-butyl-1,3,4-thiadiazole], with 20.9 nM; and `Cc1c(-c2nnc(C(C)(C)C)o2)nc(-c2ccc(Cl)cc2Cl)n1-c1ccc(Br)cc1` [Example 20, 2-(1-(4-Bromophenyl)-2-(2,4-dichlorophenyl)-5-methyl-1H-imidazol-4-yl)-5-tert-butyl-1,3,4-oxadiazole], with 5.81 nM.
The same measure, in the same setting: then `Cc1c(-c2ncc(C3CCCCC3)o2)nc(-c2ccc(Cl)cc2Cl)n1-c1ccc(Cl)cc1` [Example 180, 2-(1-(4-Chlorophenyl)-2-(2,4-dichlorophenyl)-5-methyl-1H-imidazol-4-yl)-5-cyclohexyloxazole], with 78.6 nM; and `Clc1ccc(C2(c3nnc(-c4nc(-c5ccc(Cl)cc5Cl)n(-c5ccc(Br)cc5)c4Cn4cncn4)s3)CC2)cc1` [Example 167, 2-(5-((1H-1,2,4-Triazol-1-yl)methyl)-1-(4-bromophenyl)-2-(2,4-dichlorophenyl)-1H-imidazol-4-yl)-5-(1-(4-chlorophenyl)cyclopropyl)-1,3,4-thiadiazole], with 3.91 nM.
For the compound `CCc1c(-c2nnc(C3(c4ccc(OC)cc4)CC3)s2)nc(-c2ccc(Cl)cc2Cl)n1-c1ccc(Br)cc1` [Example 132, 2-(1-(4-Bromophenyl)-2-(2,4-dichlorophenyl)-5-ethyl-1H-imidazol-4-yl)-5-(1-(4-methoxyphenyl)cyclopropyl)-1,3,4-thiadiazole], the IC50 was found to be 9.21 nM.
On the same count and under the same terms, the same measure for `FC(F)(F)C1(c2nnc(-c3nc(-c4ccc(Cl)cc4Cl)n(-c4ccc(Cl)cc4)c3Cn3cncn3)o2)CC1` [Example 89, 2-(5-((1H-1,2,4-Triazol-1-yl)methyl)-1-(4-chlorophenyl)-2-(2,4-dichlorophenyl)-1H-imidazol-4-yl)-5-(1-(trifluoromethyl)cyclopropyl)-1,3,4-oxadiazole]: 1.14 nM; for `Cc1c(-c2nnc(C(C)(C)C)s2)nc(-c2ccc(Cl)cc2Cl)n1-c1ccc(Br)cc1` [Example 109, 2-(1-(4-Bromophenyl)-2-(2,4-dichlorophenyl)-5-methyl-1H-imidazol-4-yl)-5-tert-butyl-1,3,4-thiadiazole]: 3.45 nM.
`CCc1c(-c2ncc(C(C)(C)C)s2)nc(-c2ccc(Cl)cc2Cl)n1-c1ccc(Br)cc1` [Example 201, 2-(1-(4-Bromophenyl)-2-(2,4-dichlorophenyl)-5-ethyl-1H-imidazol-4-yl)-5-tert-butylthiazole]: the IC50 stood at 10.5 nM.
With `Cc1c(-c2nnc(C3CCC3)s2)nc(-c2ccc(Cl)cc2Cl)n1-c1ccc(Br)cc1` [Example 111, 2-(1-(4-Bromophenyl)-2-(2,4-dichlorophenyl)-5-methyl-1H-imidazol-4-yl)-5-cyclobutyl-1,3,4-thiadiazole], the IC50 was 27.8 nM.
Same read-out and setting: the same measure for `CCCc1c(-c2nnc(C3(c4ccccc4)CC3)o2)nc(-c2ccc(Cl)cc2Cl)n1-c1ccc(Br)cc1` [Example 31, 2-(1-(4-Bromophenyl)-2-(2,4-dichlorophenyl)-5-propyl-1H-imidazol-4-yl)-5-(1-phenylcyclopropyl)-1,3,4-oxadiazole]: 46.1 nM; for `FC(F)(F)C1(c2nnc(-c3nc(-c4ccc(Cl)cc4Cl)n(-c4ccc(Br)cc4)c3Cn3cncn3)s2)CCC1` [Example 166, 2-(5-((1H-1,2,4-Triazol-1-yl)methyl)-1-(4-bromophenyl)-2-(2,4-dichlorophenyl)-1H-imidazol-4-yl)-5-(1-(trifluoromethyl)cyclobutyl)-1,3,4-thiadiazole]: 1.7 nM.
Still for that read-out and setting: the same measure for `CCc1c(-c2nnc(C3(c4ccc(Cl)cc4)CCC3)o2)nc(-c2ccc(Cl)cc2Cl)n1-c1ccc(Br)cc1` [Example 41, 2-(1-(4-Bromophenyl)-2-(2,4-dichlorophenyl)-5-ethyl-1H-imidazol-4-yl)-5-(1-(4-chlorophenyl)cyclobutyl)-1,3,4-oxadiazole]: 13.6 nM; for `CCc1c(-c2nnc(C3CCC3)s2)nc(-c2ccc(Cl)cc2Cl)n1-c1ccc(Cl)cc1` [Example 103, 2-(1-(4-Chlorophenyl)-2-(2,4-dichlorophenyl)-5-ethyl-1H-imidazol-4-yl)-5-cyclobutyl-1,3,4-thiadiazole]: 16.1 nM; for `CC(C)c1c(-c2nnc(C3(c4ccccc4)CC3)s2)nc(-c2ccc(Cl)cc2Cl)n1-c1ccc(Br)cc1` [Example 116, 2-(1-(4-Bromophenyl)-2-(2,4-dichlorophenyl)-5-isopropyl-1H-imidazol-4-yl)-5-(1-phenylcyclopropyl)-1,3,4-thiadiazole]: 5.66 nM.
Same read-out and setting: the same measure for `CCc1c(-c2nnc(C3(c4ccc(Cl)cc4)CC3)s2)nc(-c2ccc(Cl)cc2Cl)n1-c1ccc(Br)cc1` [Example 130, 2-(1-(4-Bromophenyl)-2-(2,4-dichlorophenyl)-5-ethyl-1H-imidazol-4-yl)-5-(1-(4-chlorophenyl)cyclopropyl)-1,3,4-thiadiazole]: 4.53 nM; for `CCc1c(-c2nnc(C3(C(F)(F)F)CC3)s2)nc(-c2ccc(Cl)cc2Cl)n1-c1ccc(Br)cc1` [Example 139, 2-(1-(4-Bromophenyl)-2-(2,4-dichlorophenyl)-5-ethyl-1H-imidazol-4-yl)-5-(1-(trifluoromethyl)cyclopropyl)-1,3,4-thiadiazole]: 15.9 nM; for `CCc1c(-c2nnc(C(C)(C)C)o2)nc(-c2ccc(Cl)cc2Cl)n1-c1ccc(Br)cc1` [Example 21, 2-(1-(4-Bromophenyl)-2-(2,4-dichlorophenyl)-5-ethyl-1H-imidazol-4-yl)-5-tert-butyl-1,3,4-oxadiazole]: 3.15 nM.
As to `CCCc1c(-c2nnc(C3CCC3)o2)nc(-c2ccc(Cl)cc2Cl)n1-c1ccc(Cl)cc1` [Example 36, 2-(1-(4-Chlorophenyl)-2-(2,4-dichlorophenyl)-5-propyl-1H-imidazol-4-yl)-5-cyclobutyl-1,3,4-oxadiazole], the half-inhibitory concentration (IC50) was 60.1 nM.
`Cc1c(-c2nnc(C3CCCC3)s2)nc(-c2ccc(Cl)cc2Cl)n1-c1ccc(Cl)cc1` [Example 92, 2-(1-(4-Chlorophenyl)-2-(2,4-dichlorophenyl)-5-methyl-1H-imidazol-4-yl)-5-cyclopentyl-1,3,4-thiadiazole]: the IC50 turned out to be 10.8 nM.
Consider `CCc1c(-c2nnc(C(C)(C)C)s2)nc(-c2ccc(Cl)cc2Cl)n1-c1ccc(Cl)cc1` [Example 104, 2-tert-Butyl-5-(1-(4-chlorophenyl)-2-(2,4-dichlorophenyl)-5-ethyl-1H-imidazol-4-yl)-1,3,4-thiadiazole], for which the IC50 amounted to 15.8 nM.
On the same count and under the same terms, then `CCCc1c(-c2nnc(C3(c4ccc(Cl)cc4)CC3)o2)nc(-c2ccc(Cl)cc2Cl)n1-c1ccc(Cl)cc1` [Example 37, 2-(1-(4-Chlorophenyl)-2-(2,4-dichlorophenyl)-5-propyl-1H-imidazol-4-yl)-5-(1-(4-chlorophenyl)cyclopropyl)-1,3,4-oxadiazole], with 15.1 nM; and `CCCc1c(-c2nnc(C3CCCCC3)s2)nc(-c2ccc(Cl)cc2Cl)n1-c1ccc(Br)cc1` [Example 120, 2-(1-(4-Bromophenyl)-2-(2,4-dichlorophenyl)-5-propyl-1H-imidazol-4-yl)-5-cyclohexyl-1,3,4-thiadiazole], with 44.3 nM.
On the same count and under the same terms, the same measure for `CCC(C)c1nnc(-c2nc(-c3ccc(Cl)cc3Cl)n(-c3ccc(Cl)cc3)c2C)o1` (stereo not shown) [Example 8, 2-sec-Butyl-5-(1-(4-chlorophenyl)-2-(2,4-dichlorophenyl)-5-methyl-1H-imidazol-4-yl)-1,3,4-oxadiazole]: 39.4 nM.
On to `Cc1c(-c2nnc(C3CCCCCC3)o2)nc(-c2ccc(Cl)cc2Cl)n1-c1ccc(Cl)cc1` [Example 5, 2-(1-(4-Chlorophenyl)-2-(2,4-dichlorophenyl)-5-methyl-1H-imidazol-4-yl)-5-cycloheptyl-1,3,4-oxadiazole], for which the IC50 was 27.6 nM.
Take `CCCc1c(-c2nnc(C(C)(C)C)s2)nc(-c2ccc(Cl)cc2Cl)n1-c1ccc(Cl)cc1` [Example 125, 2-tert-Butyl-5-(1-(4-chlorophenyl)-2-(2,4-dichlorophenyl)-5-propyl-1H-imidazol-4-yl)-1,3,4-thiadiazole]: the half-maximal inhibitory concentration (IC50) was 7.94 nM.
